Measurements reported in patent publication US9157105B2, “Biosynthesis of CMP-legionaminic acid from fructose-6-P, and respective pathway intermediates, using novel GDP-linked precursors” (priority 2008, dated 2015).

Tests used:
Type in all cases: biochemical, Campylobacter jejuni 11168
[1] = tested on: His6PtmE (Cj1329, nucleotidyltransferase); assay: His6PtmE substrate specificity (sugar-1-P acceptors and NTP donors); conditions: 10 mM sugar-1-P, 0.2 mM NTP, 30 min at 37° C.
Protocol: […] GDP-glucosamine biosynthesis. The ‘one-pot’ enzymatic synthesis of GDP-GlcN from Fru-6-P (I→IV) was accomplished using a 3 ml reaction containing His6PtmF, PtmAHis6, PgmLHis6, His6PtmE, 5 mM Fru-6-P (I), 10 mM L-Gln, 1 mM DTT, 5 mM MgCl2, 0.8 U ml^−1 pyrophosphatase, and 2.5 mM GTP in 25 mM Tris pH 7.5. Large-scale enzymatic synthesis of GDP-GlcN (IV) was accomplished using a 12 ml reaction containing 50 mM Tris pH 7.5, 1 mM GTP, 1 mM MgCl2, 0.8 U ml^−1 pyrophosphatase, 1.2 mM GlcN-1-P (III) and approximately 4.8 mg of His6PtmE. The large-scale enzymatic synthesis of GDP-GlcNAc was performed similar to that above, except the scale was increased five-fold and GlcNAc-1-P was used in place of GlcN-1-P (III). Assessment of His6PtmE substrate specificity was accomplished using 9 reactions, 80 μl each, containing 50 mM Tris pH 7.5, 2 mM MgCl2, 50 μg His6PtmE, and various combinations of 10 mM sugar-1-P (GalN-1-P, GlcN-1-P or GlcNAc-1-P) and 0.2 mM NTP (CTP, GTP, or TTP). Conversion of GDP-GlcN to GDP-GlcNAc. The His6GlmU reaction was performed using 1 mM GDP-GlcN (IV), 1.2 mM acetyl-CoA and His6GlmU in 25 mM sodium phosphate pH 7.8, 25 mM NaCl, 10 mM β-mercaptoethanol. In addition, a control reaction was performed containing 1 mM GlcN-1-P (III) instead of IV. Biosynthesis of legionaminic acid from GDP-GlcNAc. The stepwise enzymatic synthesis of intermediates or products was accomplished in 2 stages (V→VI→VII→VIII, and then VIII→IX→X) using 1 mM of V, 0.5 mM NAD, 0.8 mM PLP, 8 mM L-Glu, 1.2 mM acetyl-CoA, 1.2 mM PEP, LegBHis6, His6LegC, His6LegH, His6LegG, and His6LegI as appropriate, in 25 mM sodium phosphate pH 7.3, 25 mM NaCl. Assessment of His6LegG activity involved monitoring the reaction kinetics by ^1H NMR (see NMR spectroscopy) for 75 min using 0.75 mM GDP-2,4-diacetamido-2,4,6-trideoxy-α-D-Glc (VIII), 4 μg His6LegG in 200 μl of 25 mM sodium phosphate pH 7.3, 25 mM NaCl at 25° C. In addition, the substrate flexibility of His6LegG was assessed using a 300 μl reaction containing 40 μg His6LegG, 25 mM sodium phosphate pH 7.3, 25 mM NaCl, and 0.75 mM UDP-2,4-diacetamido-2,4,6-trideoxy-α-D-Glc, with incubation at 37° C. for 1.5 h, and then overnight at 25° C. Biosynthesis of CMP-legionaminic acid. The CMP-activation of legionaminic acid (X→XI) was performed using a 20 ml reaction containing approximately 0.2 mM of X, 50 mM MgCl2, 3 mM CTP, and 15 mg of LegFHis6 in 25 mM sodium phosphate pH 7.8, 25 mM NaCl, with incubation at 37° C. for 5 h, and then 25° C. for 72 h. Metabolite purification. Typically, reactions were passed through an Amicon Ultra-15 (10,000 molecular weight cut-off) or Ultra-4 (5,000 molecular weight cut-off) filter membrane before analysis. As required, NDP-sugar preparations (GDP-Glc, GDP-GlcN, GDP-GlcNAc, CDP-GlcNAc, TDP-GlcNAc, and CMP-Leg) were lyophilized and desalted/purified using a Superdex Peptide 10/300 GL (Amersham Biosciences) column in 25 mM ammonium bicarbonate, pH 7.9. For further purity, the NDP-sugar samples above were subjected to anion-exchange chromatography (Mono Q 4.6/100 PE, Amersham Biosciences) using ammonium bicarbonate pH 7.9. Quantification of NDP-sugar preparations was determined using the molar extinction coefficients of CMP (ε260=7,400), GDP (ε260=11,500), TDP (ε260=8,700), and UDP (ε260=10,000).
(§1) CE analysis was performed using either a P/ACE 5510 or P/ACE MDQ system (Beckman Instruments, Mississauga, Ont) with diode array detection. The capillaries were bare silica 50 μm×50 cm, with a detector at 50 cm, and the running buffer was 25 mM sodium tetraborate pH 9.4. Samples were introduced by pressure injection for 6 sec, and the separation was performed at 18 kV for 20 min. Peak integration was done using the Beckman P/ACE station software.

[2] = tested on: LegB (Cj1319, 4,6-dehydratase); assay: LegB C4,6 dehydratase reaction with NDP-sugars; conditions: in the presence or absence of NAD(P)+
Protocol: Enzymatic reactions were performed for 4.5 h at 37° C., and then overnight at 25° C., with approximately 200 μg ml^−1 respective protein concentration using chemicals from Sigma (unless otherwise indicated). GDP-glucosamine biosynthesis. The ‘one-pot’ enzymatic synthesis of GDP-GlcN from Fru-6-P (I→IV) was accomplished using a 3 ml reaction containing His6PtmF, PtmAHis6, PgmLHis6, His6PtmE, 5 mM Fru-6-P (I), 10 mM L-Gln, 1 mM DTT, 5 mM MgCl2, 0.8 U ml^−1 pyrophosphatase, and 2.5 mM GTP in 25 mM Tris pH 7.5. Large-scale enzymatic synthesis of GDP-GlcN (IV) was accomplished using a 12 ml reaction containing 50 mM Tris pH 7.5, 1 mM GTP, 1 mM MgCl2, 0.8 U ml^−1 pyrophosphatase, 1.2 mM GlcN-1-P (III) and approximately 4.8 mg of His6PtmE. The large-scale enzymatic synthesis of GDP-GlcNAc was performed similar to that above, except the scale was increased five-fold and GlcNAc-1-P was used in place of GlcN-1-P (III). Assessment of His6PtmE substrate specificity was accomplished using 9 reactions, 80 μl each, containing 50 mM Tris pH 7.5, 2 mM MgCl2, 50 μg His6PtmE, and various combinations of 10 mM sugar-1-P (GalN-1-P, GlcN-1-P or GlcNAc-1-P) and 0.2 mM NTP (CTP, GTP, or TTP). Conversion of GDP-GlcN to GDP-GlcNAc. The His6GlmU reaction was performed using 1 mM GDP-GlcN (IV), 1.2 mM acetyl-CoA and His6GlmU in 25 mM sodium phosphate pH 7.8, 25 mM NaCl, 10 mM β-mercaptoethanol. In addition, a control reaction was performed containing 1 mM GlcN-1-P (III) instead of IV. Biosynthesis of legionaminic acid from GDP-GlcNAc. The stepwise enzymatic synthesis of intermediates or products was accomplished in 2 stages (V→VI→VII→VIII, and then VIII→IX→X) using 1 mM of V, 0.5 mM NAD, 0.8 mM PLP, 8 mM L-Glu, 1.2 mM acetyl-CoA, 1.2 mM PEP, LegBHis6, His6LegC, His6LegH, His6LegG, and His6LegI as appropriate, in 25 mM sodium phosphate pH 7.3, 25 mM NaCl. Assessment of His6LegG activity involved monitoring the reaction kinetics by ^1H NMR (see NMR spectroscopy) for 75 min using 0.75 mM GDP-2,4-diacetamido-2,4,6-trideoxy-α-D-Glc (VIII), 4 μg His6LegG in 200 μl of 25 mM sodium phosphate pH 7.3, 25 mM NaCl at 25° C. In addition, the substrate flexibility of His6LegG was assessed using a 300 μl reaction containing 40 μg His6LegG, 25 mM sodium phosphate pH 7.3, 25 mM NaCl, and 0.75 mM UDP-2,4-diacetamido-2,4,6-trideoxy-α-D-Glc, with incubation at 37° C. for 1.5 h, and then overnight at 25° C. Biosynthesis of CMP-legionaminic acid. The CMP-activation of legionaminic acid (X→XI) was performed using a 20 ml reaction containing approximately 0.2 mM of X, 50 mM MgCl2, 3 mM CTP, and 15 mg of LegFHis6 in 25 mM sodium phosphate pH 7.8, 25 mM NaCl, with incubation at 37° C. for 5 h, and then 25° C. for 72 h. Metabolite purification. Typically, reactions were passed through an Amicon Ultra-15 (10,000 molecular weight cut-off) or Ultra-4 (5,000 molecular weight cut-off) filter membrane before analysis. As required, NDP-sugar preparations (GDP-Glc, GDP-GlcN, GDP-GlcNAc, CDP-GlcNAc, TDP-GlcNAc, and CMP-Leg) were lyophilized and desalted/purified using a Superdex Peptide 10/300 GL (Amersham Biosciences) column in 25 mM ammonium bicarbonate, pH 7.9. For further purity, the NDP-sugar samples above were subjected to anion-exchange chromatography (Mono Q 4.6/100 PE, Amersham Biosciences) using ammonium bicarbonate pH 7.9. Quantification of NDP-sugar preparations was determined using the molar extinction coefficients of CMP (ε260=7,400), GDP (ε260=11,500), TDP (ε260=8,700), and UDP (ε260=10,000).
as §1

[3] = molecular target: T1, His6GlmU (Cj0821, N-acetyltransferase) (Campylobacter jejuni subsp. jejuni serotype O:2, UniProt Q9PPA2); assay: His6GlmU N-acetylation reaction (CE-MS); conditions: 1 mM substrate, 1.2 mM acetyl-CoA
T1 construct: made in house; host or cells: E. coli BL21[DE3]
T1 sequence (Q9PPA2 whole entry): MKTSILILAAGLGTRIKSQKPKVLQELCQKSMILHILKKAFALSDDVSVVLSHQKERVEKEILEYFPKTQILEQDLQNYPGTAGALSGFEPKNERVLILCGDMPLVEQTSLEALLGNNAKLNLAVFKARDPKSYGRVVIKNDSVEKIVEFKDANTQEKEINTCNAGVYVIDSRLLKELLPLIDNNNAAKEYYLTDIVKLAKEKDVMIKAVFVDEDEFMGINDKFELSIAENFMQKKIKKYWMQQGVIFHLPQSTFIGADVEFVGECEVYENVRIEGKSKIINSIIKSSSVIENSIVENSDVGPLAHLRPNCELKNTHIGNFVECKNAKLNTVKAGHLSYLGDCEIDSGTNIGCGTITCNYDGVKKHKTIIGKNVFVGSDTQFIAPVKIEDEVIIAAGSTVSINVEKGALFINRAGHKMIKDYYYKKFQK
Protocol: Enzymatic reactions were performed for 4.5 h at 37° C., and then overnight at 25° C., with approximately 200 μg ml^−1 respective protein concentration using chemicals from Sigma (unless otherwise indicated). GDP-glucosamine biosynthesis. The ‘one-pot’ enzymatic synthesis of GDP-GlcN from Fru-6-P (I→IV) was accomplished using a 3 ml reaction containing His6PtmF, PtmAHis6, PgmLHis6, His6PtmE, 5 mM Fru-6-P (I), 10 mM L-Gln, 1 mM DTT, 5 mM MgCl2, 0.8 U ml^−1 pyrophosphatase, and 2.5 mM GTP in 25 mM Tris pH 7.5. Large-scale enzymatic synthesis of GDP-GlcN (IV) was accomplished using a 12 ml reaction containing 50 mM Tris pH 7.5, 1 mM GTP, 1 mM MgCl2, 0.8 U ml^−1 pyrophosphatase, 1.2 mM GlcN-1-P (III) and approximately 4.8 mg of His6PtmE. The large-scale enzymatic synthesis of GDP-GlcNAc was performed similar to that above, except the scale was increased five-fold and GlcNAc-1-P was used in place of GlcN-1-P (III). […] In addition, the substrate flexibility of His6LegG was assessed using a 300 μl reaction containing 40 μg His6LegG, 25 mM sodium phosphate pH 7.3, 25 mM NaCl, and 0.75 mM UDP-2,4-diacetamido-2,4,6-trideoxy-α-D-Glc, with incubation at 37° C. for 1.5 h, and then overnight at 25° C. […] Quantification of NDP-sugar preparations was determined using the molar extinction coefficients of CMP (ε260=7,400), GDP (ε260=11,500), TDP (ε260=8,700), and UDP (ε260=10,000). […]

SMILES	PtmE activity with sugar-1-P acceptor [1]	LegB reaction product formation [2]	GlmU N-acetylation of substrate (conversion of IV to V) [3]
O=P(O)(O)O[C@H]1O[C@H](CO)[C@@H](O)[C@H](O)[C@H]1O [Glc-1-P, glucose-1-phosphate]	activity was observed	–	–
Nc1nc2c(ncn2C2OC(COP(=O)(O)OP(=O)(O)OC3OC(CO)C(O)C(O)C3N)C(O)C2O)c(=O)[nH]1 [IV, GDP-α-D-glucosamine]	–	did not yield discernable product	not to completion
